Experimental data reported in patent US20240423203A1, “Herbicidally Active Combination for Agricultural Applications” (priority 2021, published 2024).

Assays:
Lemna minor = assay: Herbicide activity on Lemna minor in vitro, fresh weight reduction (Example 5); format: in vivo; conditions: all chemicals at 10 mg/L; 7-day exposure
Experimental: The experiment was carried out in Lemna minor growing in vitro conditions. Lemna minor (duckweed) was bought in the local market. A stock culture was maintained on modified Hoagland medium in a controlled environment. The pH of the medium was adjusted to 6.0, and the plants were grown under static conditions in a plant growth chamber at 25±2° C., light/dark regime of 16 h/8 h.
For the experiments, fronds free from any visible chlorosis were taken from the stock cultures and exposed to the appropriate treatment. For each treatment, we used six repetitions with three fronds per repetition as the initial frond number. Individual fronds were transferred to a 12 well multiplate containing Hoagland medium (control), Hoagland medium containing polyferulates, herbicides or the combination as shown in Table 8. All chemicals were evaluated at the same concentration (10 mg/L). The multiplate was covered with a transparent cover to prevent evaporation. The herbicide activity was evaluated as fresh weight reduction compared to untreated plants after one week of incubation in the described conditions.

potato plants [1] = assay: Desiccant action on potato leaf of carfentrazone-ethyl with polyferulates of different molecular weight (Example 4); conditions: application rate 25 g a.i. ha^−1, 15 DAA
potato plants [2] = assay: Desiccant action on potato leaf, field plots, visual evaluation 15 DAA (Example 3); format: in vivo; conditions: for Desiccation (%): potato leaf, 15 DAA; for effect in combination with the herbicides tested (synergistic / antagonist): potato desiccation, Colby analysis
Text: The desiccant was applied by spraying.

Echinochloa colona = assay: Herbicide activity on Echinochloa colona, visual evaluation 20 DAT (Example 6); format: in vivo
Text: Echinochloa colona is a cosmopolitan weed common in crops (mainly rice, maize and vegetables), gardens, roadsides, disturbed sites, waste areas and pastures. It also grows along waterways, on the margins of lakes and ponds, in swamps and wetlands, and in other damp habitats. It has the potential to invade natural areas and completely outcompete native vegetation. This weed pose a significant threat to rice productivity globally and are usually reported as noxious weeds in several economically important crops around the world. E. colona has vigorous growth traits and high seed production since each E. colona plant can produce up to 42,000 seeds. The experiment in Echinochloa colona plants was carried out in independent pots and in four replications. […] The products were applied by spraying. The herbicide activity was visually evaluated 20 days after treatment.

[3] = test system: Tomato (Solanum lycopersicum) plants; assay: Herbicide uptake into plant foliage: distribution of pyraflufen-ethyl between leaf fractions (Example 9); format: in vivo; conditions: tomato leaves
Experimental: Tomato (Solanum lycopersicum) plants were sprayed with a diluted solution of pyraflufen-ethyl herbicide or a diluted solution of pyraflufen-ethyl herbicide combined with polyferulates. Samples of treated leaves were taken at 2 h and 24 h after treatment. An extraction procedure following successive steps was used to describe the distribution of pyraflufen-ethyl residues on and in plant leaves. Four fractions of pesticide residues were recovered: (i) the fraction of pesticide susceptible to wash-off by rain that was assumed to correspond to the water-washable fraction, (ii) the fraction of pesticide having adsorbed on the leaf surface that was assumed to correspond to the ethanol-extracted fraction, (iii) the fraction of pesticide having penetrated into the cuticle that was assumed to correspond to the hexane-extracted fraction, and (iv) the fraction of pesticide having penetrated into the foliar tissues that was assumed to correspond to the bound residues fraction.

potato plants [4] = assay: Greenhouse potato trial: fresh weight reduction and quantum yield of PSII (Example 7); format: in vivo; conditions: for Fresh weight of the plants (% of control): 14 DAA; for Quantum yield of PSII: three days after foliar application
Experimental: The trial was carried out in a greenhouse in potato plants. The desiccant (pyraflufen-ethyl, a Protoporphyrinogen Oxidase (PPO) Inhibitor) was applied by spraying at different percentage of the recommended doses alone or combined with polyferulates. The effect of the herbicide was first evaluated by measurements of the photosynthetic capacity of treated leaves using the QY (quantum yield) three days after foliar application and the final desiccation efficiency was evaluated 14 days after treatment. The herbicide activity (desiccation efficiency) was evaluated as fresh weight reduction respect to untreated plants (control) an expressed in percentage.

potato plants [5] = assay: Desiccant action on potato leaf in function of polyferulate application timing (Example 8); format: in vivo; conditions: application rate 10.6 g a.i. ha^−1; 15 days after treatment
Text: Polyferulates were applied the day before the desiccant spraying (D−1), in tank mix combination with the desiccant (D−0) or the day after the desiccant spraying (D+1). […] The desiccant was applied by spraying.

[6] = pyraflufen-ethyl at 25% of recommended dose
[7] = pyraflufen-ethyl at 50% of recommended dose
[8] = pyraflufen-ethyl at 75% of recommended dose
[9] = pyraflufen-ethyl at 100% of recommended dose

`COC(=O)Nc1cccc(OC(=O)Nc2cccc(C)c2)c1` [Phenmedipham] was tested, and the “Herbicide activity (fresh weight reduction compared to untreated plants)” value (Lemna minor) was 3.
`CCOC(=O)C(Cl)Cc1cc(-n2nc(C)n(C(F)F)c2=O)c(F)cc1Cl` (centres unmarked) [Carfentrazone-ethyl] was tested, and the “Desiccation (%)” value (potato plants [1]) was 56%, the “Desiccation (%)” value (potato plants [2]; application rate 30) was 73% and the “Desiccation (%)” value (potato plants [2]; application rate 60) was 96%.
With `CCOC1Oc2ccc(OS(C)(=O)=O)cc2C1(C)C` (centres unmarked) [Ethofumesate] the “Herbicide activity (fresh weight reduction compared to untreated plants)” value (Lemna minor) was 0.
`O=C(O)CNCP(=O)(O)O` [Glyphosate] was tested, and the Herbicide activity (Echinochloa colona; application rate 550 g a.i. ha^−1) was 59%.
In the case of `COC(=O)c1cccc(C)c1S(=O)(=O)NC(=O)Nc1nc(OCC(F)(F)F)nc(N(C)C)n1` [Triflusulfuron-methyl], the “Herbicide activity (fresh weight reduction compared to untreated plants)” value (Lemna minor) is reported as 34.
`CCCC(=NOCC(C)Oc1ccc(Cl)cc1)C1=C(O)CC(C2CCCSC2)CC1=O` (centres unmarked) [Profoxydim] was tested, and the “Herbicide activity (fresh weight reduction compared to untreated plants)” value (Lemna minor) was 45 and the Herbicide activity (Echinochloa colona; application rate 110 g a.i. ha^−1) was 34%.
For `COc1cc(/C=C/C(=O)O)ccc1O` [Ferulic acid, (2E)-3-(4-hydroxy-3methoxyphenyl)prop-2-enoic acid], the “Desiccation (%)” value (potato plants [2]; application rate 12) was 3% and the “effect in combination with the herbicides tested (synergistic / antagonist)” value (potato plants [2]) was “antagonist”.
With `CCOC(=O)COc1cc(-c2nn(C)c(OC(F)F)c2Cl)c(F)cc1Cl` [Pyraflufen-ethyl] the “pyraflufen-ethyl in Bound residues fraction” value ([3]; 2 h after treatment) was 0.16 μg/g of fresh weight leaves, the “pyraflufen-ethyl in Ethanol-extracted fraction” value ([3]; 2 h after treatment) was 1.88 μg/g of fresh weight leaves and the “pyraflufen-ethyl in Hexane-extracted fraction” value ([3]; 2 h after treatment) was 0.51 μg/g of fresh weight leaves. The “pyraflufen-ethyl in Water-washable fraction” value ([3]; 2 h after treatment) was 3.34 μg/g of fresh weight leaves, the “pyraflufen-ethyl in Bound residues fraction” value ([3]; 24 h after treatment) was 0.12 μg/g of fresh weight leaves and the “pyraflufen-ethyl in Ethanol-extracted fraction” value ([3]; 24 h after treatment) was 1.59 μg/g of fresh weight leaves. For the same molecule, the “pyraflufen-ethyl in Hexane-extracted fraction” value ([3]; 24 h after treatment) was 0.94 μg/g of fresh weight leaves, the “pyraflufen-ethyl in Water-washable fraction” value ([3]; 24 h after treatment) was 3.1 μg/g of fresh weight leaves and the “Desiccation (%)” value (potato plants [2]; application rate 5.3) was 60%. For the same molecule, the “Desiccation (%)” value (potato plants [2]; application rate 10.6) was 78%, the “Desiccation (%)” value (potato plants [2]; application rate 15.9) was 85% and the “Desiccation (%)” value (potato plants [2]; application rate 21.2) was 90%. For the same molecule, the “Fresh weight of the plants (% of control)” value (potato plants [4]; [6]) was 39 % of control, the “Quantum yield of PSII” value (potato plants [4]; [6]) was 0.6 and the “Fresh weight of the plants (% of control)” value (potato plants [4]; [7]) was 22 % of control. For the same molecule, the “Quantum yield of PSII” value (potato plants [4]; [7]) was 0.461, the “Fresh weight of the plants (% of control)” value (potato plants [4]; [8]) was 14 % of control and the “Quantum yield of PSII” value (potato plants [4]; [8]) was 0.385. The “Fresh weight of the plants (% of control)” value (potato plants [4]; [9]) was 10 % of control, the “Quantum yield of PSII” value (potato plants [4]; [9]) was 0.335 and the “Desiccation (%)” value (potato plants [5]) was 79%.
With Diferulic acid the “Desiccation (%)” value (potato plants [2]; application rate 12) was 2% and the “effect in combination with the herbicides tested (synergistic / antagonist)” value (potato plants [2]) was “antagonist”.
For `CCCCCCCCC(=O)O` [Pelargonic acid], the “Desiccation (%)” value (potato plants [2]; application rate 2720) was 51%, the “Desiccation (%)” value (potato plants [2]; application rate 5440) was 68% and the “Desiccation (%)” value (potato plants [2]; application rate 10880) was 95%.
For `COc1cnc(OC)n2nc(NS(=O)(=O)c3c(OCC(F)F)cccc3C(F)(F)F)nc12` [Penoxsulam], the Herbicide activity (Echinochloa colona; application rate 30 g a.i. ha^−1) was 16%.
